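Following 48 hours of exposure in 96-well plates, responses at five concentrations were used to interpolate endpoints linearly. GI50 = concentration required for 50% inhibition of growth.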 Activity calls are given as the source filed them. Rule as the data show it: active = GI50 up to about 1.1 µM and inactive = higher.
Assays:
Assay in all cases: NCI tumour cell line growth inhibition, 48 h
786-0 = system: 786-0
DLD-1 = system: DLD-1
HT-29 = system: HT-29
IGROV-1 = system: IGROV-1
M14 = system: M14
MOLT-4 = system: MOLT-4
NCI-H226 = system: NCI-H226
RPMI-8226 = system: RPMI-8226
RXF 393 = system: RXF 393
SF-268 = system: SF-268
SF-539 = system: SF-539
SK-MEL-2 = system: SK-MEL-2
SK-MEL-5 = system: SK-MEL-5
EKVX = system: EKVX
SNB-19 = system: SNB-19
BT-549 = system: BT-549
HCC 2998 = system: HCC 2998
NCI/ADR-RES = system: NCI/ADR-RES
PC-3 = system: PC-3
T47D = system: T47D

Measured: GI50

C/C(=C\CBr)CCC(Br)C(C)(C)Cl (configuration not stated)
inactive: 786-0 > 100 µM | DLD-1 > 100 µM | HT-29 > 100 µM | IGROV-1 > 100 µM | M14 > 100 µM | MOLT-4 > 100 µM | NCI-H226 > 100 µM | RPMI-8226 > 100 µM | RXF 393 > 100 µM | SF-268 > 100 µM | SF-539 > 100 µM | SK-MEL-2 > 100 µM | SK-MEL-5 > 100 µM

COc1ccc(-c2oc(/C=N/NC(N)=S)c([N+](=O)[O-])c2-c2ccc(OC)c(OC)c2)cc1OC
inactive: 786-0 27.1 µM | DLD-1 24.3 µM | EKVX 22.8 µM | HT-29 23.1 µM | IGROV-1 28.3 µM | M14 20.7 µM | NCI-H226 28.1 µM | RPMI-8226 17 µM | RXF 393 13.2 µM | SF-268 16.6 µM | SF-539 25.4 µM | SK-MEL-2 15.3 µM | SNB-19 36.1 µM

CC(=O)C(=[N+]=[N-])C(=O)OC(C)(C)C#N
inactive: 786-0 > 10 µM | BT-549 > 10 µM | EKVX > 10 µM | HCC 2998 > 10 µM | HT-29 > 10 µM | IGROV-1 > 10 µM | M14 > 10 µM | MOLT-4 > 10 µM | NCI-H226 > 10 µM | NCI/ADR-RES > 10 µM | PC-3 > 10 µM | RPMI-8226 > 10 µM | RXF 393 > 10 µM | SF-268 > 10 µM | SF-539 > 10 µM | SK-MEL-2 > 10 µM | SK-MEL-5 > 10 µM | SNB-19 > 10 µM | T47D > 10 µM

C/C=N\n1c(C)n[nH]c1=O
inactive: 786-0 > 100 µM | BT-549 > 100 µM | EKVX > 100 µM | HCC 2998 > 100 µM | HT-29 > 100 µM | IGROV-1 > 100 µM | M14 > 100 µM | MOLT-4 > 100 µM | NCI-H226 > 100 µM | NCI/ADR-RES > 100 µM | PC-3 > 100 µM | RPMI-8226 > 100 µM | RXF 393 > 100 µM | SF-268 > 100 µM | SF-539 > 100 µM | SK-MEL-2 > 100 µM | SK-MEL-5 > 100 µM | SNB-19 > 100 µM | T47D > 100 µM

COc1ccc(C(=O)C(CO)Oc2ccccc2OC)cc1OC (configuration not stated)
inactive: 786-0 > 100 µM | DLD-1 > 100 µM | EKVX > 100 µM | HCC 2998 > 100 µM | HT-29 > 100 µM | IGROV-1 > 100 µM | M14 > 100 µM | MOLT-4 > 100 µM | RPMI-8226 > 100 µM | SF-268 > 100 µM | SF-539 > 100 µM | SK-MEL-2 > 100 µM | SK-MEL-5 > 100 µM | SNB-19 > 100 µM

CC1(C(=O)O)C[C@](C)(C(=O)OCc2ccccc2)C[C@](C)(C(=O)OCc2ccccc2)C1 (some centres not stated)
inactive: 786-0 32 µM | BT-549 26.5 µM | EKVX 25.1 µM | HCC 2998 27 µM | HT-29 31.8 µM | IGROV-1 22.8 µM | M14 45.6 µM | MOLT-4 25.4 µM | NCI-H226 27.3 µM | NCI/ADR-RES 29.4 µM | PC-3 26.2 µM | RPMI-8226 26.2 µM | RXF 393 21.6 µM | SF-268 47.9 µM | SF-539 25.8 µM | SK-MEL-2 17.5 µM | SK-MEL-5 32.7 µM | SNB-19 45.7 µM | T47D 35.2 µM

O=C1Oc2ccccc2C(=O)/C1=C/N1C(=O)N/C(=C\c2ccccc2O)C1=O
inactive: 786-0 68.7 µM | BT-549 45.4 µM | EKVX > 67.8 µM | HCC 2998 > 57.4 µM | HT-29 54.7 µM | IGROV-1 48.8 µM | M14 66.4 µM | MOLT-4 41.2 µM | NCI-H226 81.1 µM | NCI/ADR-RES 65.3 µM | PC-3 43.6 µM | RPMI-8226 43 µM | RXF 393 37.5 µM | SF-268 > 81.1 µM | SF-539 59.8 µM | SK-MEL-2 > 56.9 µM | SK-MEL-5 44.6 µM | SNB-19 > 100 µM | T47D 34.2 µM

CCOc1ccc2c(c1)[n+]([O-])c(-c1ccc([N+](=O)[O-])cc1)c(N)[n+]2[O-]
inactive: 786-0 > 100 µM | DLD-1 > 100 µM | EKVX > 100 µM | HT-29 > 100 µM | IGROV-1 > 100 µM | M14 > 100 µM | MOLT-4 52.2 µM | NCI-H226 > 100 µM | RXF 393 > 100 µM | SF-268 > 100 µM | SF-539 > 100 µM | SK-MEL-2 > 100 µM | SK-MEL-5 > 100 µM | SNB-19 > 100 µM

C=C1C(=O)OC2CCCCC3OC3C12 (configuration not stated)
inactive: 786-0 7.19 µM | DLD-1 7.83 µM | EKVX 16.9 µM | HCC 2998 11.7 µM | HT-29 14.4 µM | IGROV-1 17.1 µM | M14 7.16 µM | MOLT-4 13.1 µM | RPMI-8226 5.55 µM | RXF 393 13.4 µM | SF-268 13.8 µM | SF-539 11.7 µM | SK-MEL-2 12 µM | SK-MEL-5 3.99 µM | SNB-19 20 µM

O=C1NC2(CCCCC2)C2CCCCC=C12 (configuration not stated)
inactive: 786-0 > 100 µM | DLD-1 > 100 µM | EKVX > 100 µM | HT-29 > 100 µM | IGROV-1 > 100 µM | M14 > 100 µM | MOLT-4 > 100 µM | RPMI-8226 > 100 µM | RXF 393 > 100 µM | SF-268 > 100 µM | SF-539 > 100 µM | SK-MEL-2 > 100 µM | SK-MEL-5 > 100 µM | SNB-19 > 100 µM

COc1cc(Oc2c(O)c(C)c(OC)c(C(C)=O)c2O)c(C(C)=O)c(O)c1C
inactive: 786-0 60.7 µM | DLD-1 66.7 µM | HCC 2998 59 µM | HT-29 71.8 µM | IGROV-1 67.3 µM | M14 64.3 µM | NCI-H226 85.9 µM | RXF 393 61.9 µM | SF-268 66.4 µM | SF-539 62.2 µM | SK-MEL-5 35.2 µM | SNB-19 63 µM

COc1cc(C(=O)C/C(CCC(=O)Nc2ccc(Cl)cc2C)=N/NC(=O)C(N)=O)ccc1O
inactive: 786-0 > 100 µM | DLD-1 > 100 µM | EKVX > 100 µM | HCC 2998 > 100 µM | HT-29 > 100 µM | IGROV-1 > 100 µM | M14 > 100 µM | MOLT-4 > 100 µM | NCI-H226 > 100 µM | RPMI-8226 > 100 µM | SF-268 > 100 µM | SF-539 > 100 µM | SK-MEL-2 > 100 µM | SK-MEL-5 > 100 µM | SNB-19 > 100 µM

O=C(NC1CCCCC1)c1c(O)[nH]c(=S)[nH]c1=O
inactive: 786-0 > 100 µM | DLD-1 > 100 µM | HT-29 > 100 µM | IGROV-1 > 100 µM | M14 > 100 µM | MOLT-4 > 100 µM | NCI-H226 > 100 µM | RPMI-8226 > 100 µM | SF-268 > 100 µM | SF-539 > 100 µM | SK-MEL-2 > 100 µM | SK-MEL-5 > 100 µM | SNB-19 > 100 µM

CC(C)(C)c1cc(C#N)c2c(c1)C(=O)OC2(c1ccccc1)c1ccccc1C#N (configuration not stated)
inactive: 786-0 > 100 µM | DLD-1 > 100 µM | EKVX > 100 µM | HT-29 > 100 µM | IGROV-1 > 100 µM | M14 > 100 µM | MOLT-4 23.8 µM | NCI-H226 > 100 µM | RXF 393 > 100 µM | SF-268 > 100 µM | SF-539 > 100 µM | SK-MEL-2 > 100 µM | SNB-19 > 100 µM

Cc1ncc(-c2nnnn2-c2ccccc2)c(C(=O)O)n1
inactive: 786-0 > 100 µM | BT-549 > 100 µM | EKVX > 100 µM | HCC 2998 > 100 µM | HT-29 > 100 µM | IGROV-1 > 100 µM | M14 > 100 µM | MOLT-4 > 100 µM | NCI-H226 > 100 µM | NCI/ADR-RES > 100 µM | PC-3 > 100 µM | RPMI-8226 > 100 µM | RXF 393 > 100 µM | SF-268 > 100 µM | SF-539 > 100 µM | SK-MEL-2 33.3 µM | SK-MEL-5 > 100 µM | SNB-19 > 100 µM | T47D > 100 µM

CC(C)(C)OC(=O)NC1CCC[C@H]1O (some centres not stated)
inactive: 786-0 > 100 µM | DLD-1 > 100 µM | EKVX > 100 µM | HCC 2998 > 100 µM | HT-29 > 100 µM | M14 > 100 µM | MOLT-4 > 100 µM | NCI-H226 > 100 µM | RXF 393 > 100 µM | SF-268 > 100 µM | SF-539 > 100 µM | SK-MEL-2 > 100 µM | SK-MEL-5 > 100 µM | SNB-19 > 100 µM

COc1ccc2c3c(c(C(=O)c4ccccc4)oc13)CCC2
inactive: 786-0 > 100 µM | DLD-1 > 100 µM | EKVX > 100 µM | HCC 2998 > 100 µM | HT-29 79.4 µM | IGROV-1 > 100 µM | M14 > 100 µM | MOLT-4 > 100 µM | RPMI-8226 > 100 µM | RXF 393 17.5 µM | SF-539 > 100 µM | SK-MEL-5 > 100 µM | SNB-19 > 100 µM

COc1nc(N)c(NC2OC(CO)C(O)C2O)c(=O)[nH]1 (configuration not stated)
inactive: 786-0 > 100 µM | BT-549 > 100 µM | EKVX > 100 µM | HCC 2998 > 100 µM | HT-29 > 100 µM | IGROV-1 > 100 µM | M14 > 100 µM | MOLT-4 > 100 µM | NCI-H226 > 100 µM | NCI/ADR-RES > 100 µM | PC-3 > 100 µM | RPMI-8226 > 100 µM | RXF 393 > 100 µM | SF-268 > 100 µM | SF-539 > 100 µM | SK-MEL-2 > 100 µM | SK-MEL-5 > 100 µM | SNB-19 > 100 µM | T47D > 100 µM

Source: ChEMBL document CHEMBL1201862, “PubChem BioAssay data set” (2004)
